Measurements reported in paper PMC3717276, “Optimization and validation of mitochondria-based functional assay as a useful tool to identify BH3-like molecules selectively targeting anti-apoptotic Bcl-2 proteins” (BMC Biotechnology, 2013).
Each block holds one molecule with its values, some of them ahead of it. Ends that are not written are not given here.

What was measured:
[1] = system: mitochondria isolated from 2LMP cells; test: Permeabilization of mitochondrial outer membrane (MOMP), Cytochrome C and Smac release by Western blot; type: biochemical, human; details: agent alone at indicated concentrations, 100 mM KCl buffer, 37°C, 60 min, Figure 3A
Method: Mitochondria were isolated from breast cancer cells. Cells were harvested by centrifugation at 1200 g (Microcentrifuge 5415R from Eppendorf) for 5 min at 4°C and then washed with ice-cold PBS. Cell pellets were resuspended in 400 μl of mitochondria isolation buffer (MIB: pH 7.4; 0.1 mM EDTA, 10 mM Tris–HCl, 250 mM Sucrose) freshly added 1 mM PMSF and Protease Inhibitor Cocktail (Roche). Cell suspensions were then homogenized with 40 strokes in a Dounce Tissue Grinder on ice and centrifuged at 1200 g for 10 min at 4°C. Supernatants were centrifuged at 12000 g for 10 min at 4°C. Pellet enriched in mitochondria was washed three times with MIB, spun down at 12000 g for 10 min at 4°C. […] Protein concentrations were determined using Bradford Protein Assay (Protein Assay Kit II, Cat# 500–0002, Bio-Rad). […]
Supernatant samples and mitochondrial pellet samples were subjected to protein separation by SDS-PAGE. After transfer to Polyvinylidene fluoride (PVDF) membranes, Cytochrome C, Smac proteins and loading control (Cytochrome C Oxidase IV, COX IV) were analyzed using the following primary antibodies: anti-Cytochrome C polyclonal antibody (1:500; #4272; Cell Signaling Techonology), anti-Smac/DIABLO polyclonal antibody (1:500; PC574; Calbiochem), anti-COX IV monoclonal antibody (3E11; 1:1000; #4850; Cell Signaling Techonology). […]

[2] = biological target: T1, Mcl-1 (Homo sapiens, UniProt Q07820); test: SPR competitive solution binding assay (immobilized Bim BH3 peptide); details: read-out: SPR Mcl-1 IC50[nM] ± SD
T1 construct: encoding amino acid residues of 171–327; 8xHis (pHis-TEV vector) (N); made in house; host or cells: E. coli BL21(DE3)
T1 sequence (Q07820 171-327): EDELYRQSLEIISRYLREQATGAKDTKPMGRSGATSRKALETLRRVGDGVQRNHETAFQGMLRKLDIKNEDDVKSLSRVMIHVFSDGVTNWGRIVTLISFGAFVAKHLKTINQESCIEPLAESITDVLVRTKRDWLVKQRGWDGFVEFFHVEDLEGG
Method: The Mcl-1fragment (NM_021960) encoding amino acid residues of 171–327 was cloned into the pHis-TEV vector. Mcl-1 protein with an N-terminal 8×His tag was produced in E. coli BL21(DE3).
(§1) Determination of kon, koff and Kd were calculated by simultaneous non-linear regression using BIAevaluation software (BIAcore Life Sciences).
(§2) IC50 values were determined by Non-linear Least Squares analysis using Graph Pad Prism 5.0 software.

[3] = biological target: T1, Mcl-1; test: FP competitive binding assay (FAM-Bid tracer); details: read-out: FP assay Mcl-1 Ki[nM] ± SD
[4] = biological target: T2, Bcl-xL (Homo sapiens, UniProt Q07817, DEL45-85); test: SPR competitive solution binding assay (immobilized Bim BH3 peptide); details: read-out: SPR Bcl-xL IC50[nM] ± SD
T2 construct: 8xHis (pHis-TEV vector) (N); made in house; host or cells: E. coli BL21(DE3)
T2 sequence (Q07817 with tags, fused parts or gaps DEL45-85): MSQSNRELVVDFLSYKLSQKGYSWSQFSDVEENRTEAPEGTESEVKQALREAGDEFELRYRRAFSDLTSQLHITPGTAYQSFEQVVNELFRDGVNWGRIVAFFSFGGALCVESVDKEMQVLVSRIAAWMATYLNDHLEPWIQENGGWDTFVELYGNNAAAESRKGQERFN
Method: Lysis buffer contained 50 mM Tris, pH 7.5, 200 mM NaCl, 0.1% BME and Leupectin/Aprotin, while protein was eluted in buffer containing 20 mM Tris, pH7.5, 150 mM NaCl and 5 mM DTT.
as §1, §2

[5] = biological target: T2, Bcl-xL; test: FP competitive binding assay (FAM-Bak tracer); details: read-out: FP assay Bcl-xL Ki[nM] ± SD

Molecule: CN(C)CC[C@H](CSc1ccccc1)Nc1ccc(S(=O)(=O)NC(=O)c2ccc(N3CCN(Cc4ccccc4-c4ccc(Cl)cc4)CC3)cc2)cc1[N+](=O)[O-] [ABT-737]
Cytochrome C and Smac release from 2LMP mitochondria [1]: effectively induced Cytochrome C and Smac release

Molecule: CSCC[C@H](NC(=O)[C@H](CCCNC(=N)N)NC(=O)[C@H](CCCNC(=N)N)NC(=O)[C@H](CC(C)C)NC(=O)[C@H](CCC(=O)O)NC(=O)[C@H](CCCNC(=N)N)NC(=O)CNC(=O)[C@H](Cc1ccc(O)cc1)NC(=O)[C@H](CCCNC(=N)N)NC(=O)[C@H](CCC(N)=O)NC(=O)[C@H](C)NC(=O)[C@H](C)NC(=O)[C@H](Cc1c[nH]c2ccccc12)NC(=O)[C@H](CC(C)C)NC(=O)[C@@H](N)CC(N)=O)C(=O)N[C@@H](CO)C(=O)N[C@@H](CC(=O)O)C(=O)N[C@@H](CCC(=O)O)C(=O)N[C@@H](Cc1ccccc1)C(=O)N[C@H](C(=O)N[C@@H](CC(=O)O)C(=O)N[C@@H](CO)C(=O)N[C@@H](Cc1ccccc1)C(=O)N[C@@H](CCCCN)C(=O)N[C@@H](CCCCN)C(=O)NCC(=O)O)C(C)C [Bad]
IC50 [2]: > 30000 nM | Ki [3]: > 20000 nM

IC50 [4]: > 30000 nM | Ki [5]: > 10000 nM
Molecule: PAELEVECATQLRRFGDKLNFRQKLL [Noxa]
